Experimental data from patent US20230159453A1 (COCRYSTAL PHARMA, INC., priority 2020, published 2023).

Molecular target: SARS2 protease (Severe acute respiratory syndrome coronavirus 2, UniProt P0DTD1)
Assay: SARS-CoV-2 protease inhibition assay (SARS2 FRET protease assay)
Format: biochemical
Details: SARS-CoV-2 protease 25 nM, FRET, peptide substrate 1.3 μM, 30 minutes at 30° C., compounds 20 μM to 1.0 nM; read-out: IC50

Structure (SMILES)	IC50 [nM]
CC(=O)N1CCC2(CC1)CC(CC(NC(=O)[C@H](CC1CCCCC1)NC(=O)c1cc3cc(Cl)ccc3[nH]1)C(=O)C(N)=O)C(=O)N2 (stereo partly drawn) [Compound C126, N-((2S)-1-((1-(8-acetyl-2-oxo-1,8-diazaspiro[4.5]decan-3-yl)-4-amino-3,4-dioxobutan-2-yl)amino)-3-cyclohexyl-1-oxopropan-2-yl)-5-chloro-1H-indole-2-carboxamide]	1190
CC(OC(=O)N[C@@H](CC1CCCCC1)C(=O)N[C@H](C=O)CCC(=O)N(C)CCc1ccccc1)c1cccc(Cl)c1 (some centres unmarked) [Compound C25]	11100
O=C[C@H](CCC(=O)NC1(Cc2ccccc2)CC1)NC(=O)[C@H](CC1CCCCC1)NC(=O)OCc1cccc(Cl)c1 [Compound C33, 3-Chlorobenzyl ((S)-1-(((S)-5-((1-benzylcyclopropyl)amino)-1,5-dioxopentan-2-yl)amino)-3-cyclohexyl-1-oxopropan-2-yl)carbamate]	> 200000
CS(=O)(=O)N1CCC2(CC1)CC(C[C@@H](C=O)NC(=O)[C@H](CC1CCCCC1)NC(=O)OCc1cccc(Cl)c1)C(=O)N2 (stereo partly drawn) [Compound C178, 3-Chlorobenzyl ((2S)-3-cyclohexyl-1-(((2S)-1-(8-(methylsulfonyl)-2-oxo-1,8-diazaspiro[4.5]decan-3-yl)-3-oxopropan-2-yl)amino)-1-oxopropan-2-yl)carbamate]	71
CC(=O)N1CCC2(CC1)CC(CC(C=O)NC(=O)[C@H](Cc1cccc(F)c1)NC(=O)OCc1cccc(Cl)c1)C(=O)N2 (stereo partly drawn) [Compound C67, 3-Chlorobenzyl ((2S)-1-((1-(8-acetyl-2-oxo-1,8-diazaspiro[4.5]decan-3-yl)-3-oxopropan-2-yl)amino)-3-(3-fluorophenyl)-1-oxopropan-2-yl)carbamate]	300
CC(C)C[C@H](NC(=O)O[C@@H](c1cccc(F)c1)C(C)(C)c1cccc(Cl)c1)C(=O)N[C@H](C=O)C[C@@H]1CCNC1=O [Compound C268]	20
CC(C)C[C@H](NC(=O)OC1CCCC1Cc1ccccc1)C(=O)N[C@@H](C[C@@H]1CCNC1=O)C(=O)C(N)=O (stereo partly drawn) [Compound C240, 2-Benzylcyclopentyl ((S)-1-(((S)-4-amino-3,4-dioxo-1-((S)-2-oxopyrrolidin-3-yl)butan-2-yl)amino)-4-methyl-1-oxopentan-2-yl)carbamate]	230
CC1(C)CC(CC(C=O)NC(=O)[C@H](CC2CCCCC2)NC(=O)OCc2cccc(Cl)c2)C(=O)N1 (stereo partly drawn) [Compound C198, 3-chlorobenzyl ((2S)-3-cyclohexyl-1-((1-(5,5-dimethyl-2-oxopyrrolidin-3-yl)-3-oxopropan-2-yl)amino)-1-oxopropan-2-yl)carbamate]	4.7
CC(C)C[C@H](NC(=O)OC(c1ccccc1)C(C)(C)c1cccc(Cl)c1)C(=O)N[C@@H](CC1CC(C)(C)NC1=O)C(=O)C(=O)NC1CC1 (stereo partly drawn) [Compound C163, 2-(3-Chlorophenyl)-2-methyl-1-phenylpropyl ((2S)-1-((4-(cyclopropylamino)-1-(5,5-dimethyl-2-oxopyrrolidin-3-yl)-3,4-dioxobutan-2-yl)amino)-4-methyl-1-oxopentan-2-yl) carbamate]	1810
CC1(C)CC(C[C@H](NC(=O)[C@H](CC2CCCCC2)NC(=O)OC(Cc2cccc(Cl)c2)c2cccc(Cl)c2)C(=O)C(=O)NC2CC2)C(=O)N1 (stereo partly drawn) [Compound C172, 1,2-Bis (3-Chlorophenyl) ethyl ((2S)-3-cyclohexyl-1-((4-(cyclopropylamino)-1-(5,5-dimethyl-2-oxopyrrolidin-3-yl)-3,4-dioxobutan-2-yl)amino)-1-oxopropan-2-yl)carbamate]	1670
CC(C)(c1cccc(Cl)c1)C(OC(=O)N[C@@H](CC1CCCCC1)C(=O)N[C@H](C=O)C[C@@H]1CCNC1=O)c1ccc2c(c1)CCC2 (stereo partly drawn) [Compound C132, 2-(3-Chlorophenyl)-1-(2,3-dihydro-1H-inden-5-yl)-2-methylpropyl ((S)-3-cyclohexyl-1-oxo-1-(((S)-1-oxo-3-((S)-2-oxopyrrolidin-3-yl)propan-2-yl)amino)propan-2-yl)carbamate]	60
CC1(C)CC(C[C@@H](C=O)NC(=O)[C@H](CC2CCCCC2)NC(=O)OC2CCCC2Cc2cccc(Cl)c2)C(=O)N1 (stereo partly drawn) [Compound C156, 2-(3-Chlorobenzyl)cyclopentyl ((2S)-3-cyclohexyl-1-((1-(5,5-dimethyl-2-oxopyrrolidin-3-yl)-3-oxopropan-2-yl)amino)-1-oxopropan-2-yl)carbamate]	52.8
O=C(N[C@@H](CC1CCCCC1)C(=O)N[C@@H](C[C@@H]1CCNC1=O)C(=O)C(=O)NC1CC1)O[C@H]1CCC[C@@H]1Cc1cccc(Cl)c1 [Compound C264]	680
CC(C)C[C@H](NC(=O)OC(c1ccccc1)C(F)(F)c1cccc(Cl)c1)C(=O)N[C@@H](C[C@@H]1CCNC1=O)C(=O)C(N)=O (some centres unmarked) [Compound C251]	0.008
CC(C)C[C@H](NC(=O)OC(c1ccccc1)C(C)(C)c1cccc(Cl)c1)C(=O)N[C@@H](C[C@@H]1CCNC1=O)C(=O)C(=O)NC1CC1 (stereo partly drawn) [Compound C166, 2-(3-Chlorophenyl)-2-methyl-1-phenylpropyl ((S)-1-(((S)-4-(cyclopropylamino)-3,4-dioxo-1-((S)-2-oxopyrrolidin-3-yl)butan-2-yl)amino)-4-methyl-1-oxopentan-2-yl)carbamate]	14
CCOP(=O)(OCC)C(O)C(CC1CC2(CCN(C(C)=O)CC2)NC1=O)NC(=O)[C@H](CC(C)C)NC(=O)OCC(C)(C)c1cccc(Cl)c1 (stereo partly drawn) [Compound C84, 2-(3-Chlorophenyl)-2-methylpropyl ((2S)-1-((3-(8-acetyl-2-oxo-1,8-diazaspiro[4.5]decan-3-yl)-1-(diethoxyphosphoryl)-1-hydroxypropan-2-yl)amino)-4-methyl-1-oxopentan-2-yl)carbamate]	9200
CC(C)C[C@H](NC(=O)OC(Cc1cccc(Cl)c1)c1ccccc1)C(=O)N[C@@H](C[C@@H]1CCNC1=O)C(O)S(=O)(=O)O (stereo partly drawn) [Compound C114, Sodium (2S)-2-((2S)-2-(((2-(3-chlorophenyl)-1-phenylethoxy)carbonyl)amino)-4-methylpentanamido)-1-hydroxy-3-((S)-2-oxopyrrolidin-3-yl) propane-1-sulfonate]	11.1
CC(=O)N1CCC2(CC1)C[C@H](C[C@H](NC(=O)[C@H](CC1CCCCC1)NC(=O)c1cc3ccccc3[nH]1)C(=O)C(N)=O)C(=O)N2 [Compound C125, N—((S)-1-(((S)-1-((S)-8-acetyl-2-oxo-1,8-diazaspiro[4.5]decan-3-yl)-4-amino-3,4-dioxobutan-2-yl)amino)-3-cyclohexyl-1-oxopropan-2-yl)-1H-indole-2-carboxamide]	20.1
CC(C)(C)C(=O)N1CCC2(CC1)CC(CC(NC(=O)[C@H](CC1CCCCC1)NC(=O)OC1CCCC1Cc1cccc(Cl)c1)C(=O)C(=O)NC1CC1)C(=O)N2 (stereo partly drawn) [Compound C210, 2-(3-Chlorobenzyl) cyclopentyl ((2S)-3-cyclohexyl-1-((4-(cyclopropylamino)-3,4-dioxo-1-(2-oxo-8-pivaloyl-1,8-diazaspiro[4.5]decan-3-yl)butan-2-yl)amino)-1-oxopropan-2-yl) carbamate]	2650
CCOP(=O)(OCC)C(O)C(CC1CC2(CCN(C(C)=O)CC2)NC1=O)NC(=O)[C@H](CC(C)C)NC(=O)OCC1CCC(F)(F)CC1 (stereo partly drawn) [Compound C95, (4,4-Difluorocyclohexyl)methyl ((2S)-1-((3-(8-acetyl-2-oxo-1,8-diazaspiro[4.5]decan-3-yl)-1-(diethoxyphosphoryl)-1-hydroxypropan-2-yl)amino)-4-methyl-1-oxopentan-2-yl)carbamate]	7000
